# What was measured:
# [1] = molecular target: T1, Prostaglandin G/H synthase 2 (Ovis aries, UniProt P79208); assay: Inhibition of sheep placental cotyledons COX2-mediated prostaglandin production
# T1 sequence (P79208 whole entry): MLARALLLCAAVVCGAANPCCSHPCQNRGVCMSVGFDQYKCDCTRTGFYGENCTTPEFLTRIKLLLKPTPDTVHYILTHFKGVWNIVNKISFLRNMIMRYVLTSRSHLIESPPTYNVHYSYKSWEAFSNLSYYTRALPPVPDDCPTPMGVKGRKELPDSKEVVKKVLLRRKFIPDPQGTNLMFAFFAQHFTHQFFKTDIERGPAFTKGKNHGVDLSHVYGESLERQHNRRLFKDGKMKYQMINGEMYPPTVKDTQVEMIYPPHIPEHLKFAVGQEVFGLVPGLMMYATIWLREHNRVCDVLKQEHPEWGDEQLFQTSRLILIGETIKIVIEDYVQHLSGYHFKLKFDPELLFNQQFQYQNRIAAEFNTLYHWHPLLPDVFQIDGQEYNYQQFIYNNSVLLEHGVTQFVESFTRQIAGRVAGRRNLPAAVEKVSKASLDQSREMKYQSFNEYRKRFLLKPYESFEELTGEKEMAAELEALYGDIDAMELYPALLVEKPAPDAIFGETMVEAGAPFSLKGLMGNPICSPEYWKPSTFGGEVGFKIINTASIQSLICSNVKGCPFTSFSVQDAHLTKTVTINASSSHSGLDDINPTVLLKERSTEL
# [2] = molecular target: T2, Prostaglandin G/H synthase 1 (Bos taurus, UniProt O62664); assay: Inhibition of bovine seminal vesicle microsomal COX1-mediated prostaglandin production; type: microsomes
# T2 sequence (O62664 whole entry): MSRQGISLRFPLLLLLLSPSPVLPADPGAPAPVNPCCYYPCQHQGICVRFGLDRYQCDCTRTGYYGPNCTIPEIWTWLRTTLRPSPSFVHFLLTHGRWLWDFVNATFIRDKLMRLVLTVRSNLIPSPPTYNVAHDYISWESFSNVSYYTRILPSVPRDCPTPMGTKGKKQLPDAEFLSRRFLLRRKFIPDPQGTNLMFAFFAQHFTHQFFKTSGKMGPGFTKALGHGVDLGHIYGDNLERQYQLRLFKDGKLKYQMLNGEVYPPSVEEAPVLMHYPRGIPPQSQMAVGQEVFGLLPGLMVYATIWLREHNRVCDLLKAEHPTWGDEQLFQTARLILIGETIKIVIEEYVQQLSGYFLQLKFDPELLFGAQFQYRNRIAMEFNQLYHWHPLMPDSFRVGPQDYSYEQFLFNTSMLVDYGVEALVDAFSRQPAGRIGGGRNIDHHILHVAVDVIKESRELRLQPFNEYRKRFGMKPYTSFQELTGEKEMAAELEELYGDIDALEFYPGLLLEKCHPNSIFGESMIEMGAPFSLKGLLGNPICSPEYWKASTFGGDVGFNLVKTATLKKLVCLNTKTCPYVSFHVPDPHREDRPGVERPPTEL
IC50 [1] [µM],IC50 [2] [µM],Structure (SMILES)
1200,381,COc1cc(O)c2c(=O)c(-c3cc(OC)c(OC)c(O[C@@H]4O[C@H](CO)[C@@H](O)[C@H](O)[C@H]4O)c3)coc2c1
900,97,COc1cc(O)c2c(=O)c(-c3cc(O)c(OC)c(OC)c3)coc2c1

Structure (SMILES),IC50 [1] [µM],IC50 [2] [µM]
Oc1cc(O)c2c(c1)O[C@H](c1ccc(O)c(O)c1)[C@@H](O)C2 [CIANIDANOL],,80
